Experimental data reported in US7608640B2, “Glycine betaine and its use” (priority 2001, dated 2009).
Blank lines part the entries; values can stand above or below the compound they belong to.

Key:
[1] = system: arterial thrombosis induced by laser beam in the mesenteric microcirculation of the rat; assay: Laser-induced thrombosis in the mesenteric microcirculation; type: in vivo
Text: A/Principle of Laser-induced Thrombosis (Seiffge D. et al., 1989; Weichter W. et al., 1983).
In this model, lesion of the vascular wall is induced by a laser beam. This beam causes a limited lesion of the vascular endothelium (only 1 to 2 cells are destroyed). This laying bare of the sub-endothelium, which is a thrombogenetic surface, results in the adherence of platelets via […]. This adherence of platelets is followed by the activation thereof. They form pseudopods and secrete the content of their granules. This activation results in the appearance of glycoproteins IIb-IIIa which are necessary for the aggregation of the platelets between them. This lesion is induced in the mesenteric microcirculation of the rat. It is immediately followed by the formation of a thrombus (in a few seconds). This thrombus, which rapidly enlarges under the influence of the flow of blood, embolises before being formed again.
By this manes, the assessment of the effect of glycine betaine was conducted pharmacologically in conjunction with the study of two active molecules used as a reference; namely acetylsalicylic acid and heparin (of low molecular weight). The assessment also involved the activity of glycine betaine in relation to the prothrombotic effects induced by contrasting products.
Male Wistar rats were used for these tests. They weighed between 200 and 250 grams. After an 8-day stabilisation period, the rats were subjected to fasting for 12 hours. They were then anaesthetised, glycine betaine was administered subcutaneously, and the mesentery (laser) or vena cava (stasis) was opened at the end of the experiments.

[2] = system: platelet aggregation; assay: Whole blood platelet aggregation ex vivo (aggregometer); type: in vivo, rat; conditions: for Amplitude (platelet aggregation induced ex vivo) / Velocity (platelet aggregation induced ex vivo): 5 mg/kg; for Amplitude (platelet aggregation) / Velocity (platelet aggregation): rat, after laser firings, glycine betaine 5 mg/kg, acetylsalicylic acid 100 mg/kg, heparin 2 mg/kg
Procedure: The aggregation is made in accordance to the methods of Cardinal & Flower. Pharmacol. Method. 1980, and to American Journal of Clinical Pathology, 1989; 92: 676-679, Sureney. J D. Whole Blood aggregometry. After a keeping period of 8 days, the rats are subjected to a fasting for 12 hours. […] The rats are then anaesthetised with sodium Thiopental administered at a dose of 200 mg/Kg and the blood samples are taken by intracardiac puncture on a trisodium citrate solution (1 volume of solution at 3.8% citrate for 9 volumes of blood).

[3] = system: coagulation factors; assay: Biological balance (Quick time, ACT, fibrinogen, α2AP, AT III); type: in vivo, rat
[4] = Azure A method, in vitro binding of betaine to heparin
Procedure: This experiment utilized stock solutions of azure A, heparin, betaine, and a betaine-heparin combination in order to determine in vitro binding of betaine to Heparin. The stock solution of azure A was prepared at 4×10^−5 mol L^−1 by solubilizing 58.35 mg azure A in 50 ml of sterile injectable water. Next, 10 ml of this solution was diluted in 90 ml of sterile injectable water. The resulting solution was diluted again by taking 10 ml of this solution and diluting it in 90 ml of sterile injectable water. Finally, the resulting solution is filtered on Watman paper and aliquots of 4 ml are realized. The stock solution of Heparin was prepared by diluting the manufacturer-supplied stock solution (5000 UI/ml having ±150 UI/mg), (LEO Pharma, Ballerup, Denmark). One ml of this supplied solution was diluted in 499 ml of sterile injectable water in order to obtain a 10 UI/ml in final concentration. The betaine stock solution was prepared by diluting betaine in sterile injectable water in order to obtain a final concentration of 10 mg/ml. The Heparin-betaine combination stock solution was prepared by mixing 12 ml of the betaine stock solution prepared as noted above with 14.4 ml of the manufacturer-supplied Heparin stock solution (corresponding to 120 mg of betaine and 480 mg Heparin). This mixture was agitated for 2 minutes while mixing and then incubated for 10 minutes at 20° C. The final combination solution is then prepared by taking 1 ml of the solution after incubation and diluting it in 499 ml of sterile injectable water.
Each stock solution was then tested at six dilutions for its effect on heparin binding to azure A dye. The first dilution consisted of 0 μl solution, 400 μl water and 4 ml azure A solution. The second dilution consisted of 80 μl solution, 320 μl water and 4 ml azure A solution. The third dilution consisted of 160 μl solution, 240 μl water and 4 ml azure A solution. The fourth dilution consisted of 240 μl solution, 160 μl water and 4 ml azure A solution. The fifth dilution consisted of 320 μl solution, 80 μl water and 4 ml azure A solution. The sixth dilution consisted of 400 μl solution, 0 μl water and 4 ml azure A solution. Each dilution was then subjected to the azure A method which is a rapid and simple spectrophotometric method for determining heparin concentration following the formation of a soluble complex between heparin and azure A dye. Chemically, azure A is formed by 3 benzene nuclei and a terminal N^+. This soluble complex changes the typically blue color of the azure dye to purple. The principle of the test is based on the spectrophotometric absorption of the heparin/azure A dye complex at 632 nm. Heparin binding to azure A results in lowered absorbance and the solution gradually turns deeper purple as heparin concentration increases. In the presence of a substance which binds to heparin (e.g., protamine), azure A retains its blue color and absorbance remains constant. The results of this test are provided in the following table which illustrates that no significant change in the absorbance of azure A occurs when betaine is combined with heparin. However, Heparin alone has a significant effect on azure A absorption.

[5] = 5 mg/ml/kg, Group I: injected 1 hour before
[6] = 5 mg/ml/kg, Group II: injected 2 hours before
[7] = 5 mg/ml/kg, Group III: injected 3 hours before
[8] = 5 mg/ml/kg, Group IV: injected 4 hours before
[9] = 24 hours after sub cutaneous 10 mg/kg
[10] = 24 hours after sub cutaneous administration, title 20 mg/kg, table line 10 mg/kg
[11] = rat, after laser firings, glycine betaine 5 mg/kg, acetylsalicylic acid 100 mg/kg, heparin 2 mg/kg
[12] = Group I: injected 1 hour before
[13] = Group II: injected 2 hours before
[14] = Group III: injected 3 hours before
[15] = Group IV: injected 4 hours before
[16] = 5 mg/kg/day, repeated administration on 5 days of treatment
[17] = rat, glycine betaine 5 mg/kg, acetylsalicylic acid 100 mg/kg, heparin 2 mg/kg
[18] = Heparin UI/ml (reference) 2, second dilution, 80 μl stock solution
[19] = Heparin UI/ml (reference) 4, third dilution, 160 μl stock solution
[20] = Heparin UI/ml (reference) 6, fourth dilution, 240 μl stock solution
[21] = Heparin UI/ml (reference) 8, fifth dilution, 320 μl stock solution
[22] = Heparin UI/ml (reference) 10, sixth dilution, 400 μl stock solution

Absorbance of azure A at 632 nm [4, 18]: 1.241
Absorbance of azure A at 632 nm [4, 19]: 1.213
Absorbance of azure A at 632 nm [4, 20]: 1.1937
Absorbance of azure A at 632 nm [4, 21]: 1.1612
Absorbance of azure A at 632 nm [4, 22]: 1.154
Compound: C[N+](C)(C)CC(=O)O [Glycine betaine]
Duration of embolisation [1, 5]: 0.51 ± 0.5 min
Number of emboles [1, 5]: 1.8 ± 1.44
Number of firings [1, 5]: 3.49 ± 1.07
Duration of embolisation [1, 6]: 0.3 ± 0.23 min
Number of emboles [1, 6]: 1.4 ± 1.18
Number of firings [1, 6]: 3.0 ± 1.5
Duration of embolisation [1, 7]: 1.00 ± 0.5 min
Number of emboles [1, 7]: 1.99 ± 0.4
Number of firings [1, 7]: 2.50 ± 1.25
Duration of embolisation [1, 8]: 1.5 ± 0.6 min
Number of emboles [1, 8]: 2.2 ± 0.69
Number of firings [1, 8]: 2.7 ± 1.0
Embolisation time [1, 9]: 0 ± 0 min
Number of emboles [1, 9]: 1 +/− 0
Number of laser firing [1, 9]: 3.33 +/− 0.57
Embolisation time [1, 10]: 0 ± 0 min
Number of emboles [1, 10]: 0.66 +/− 0.57
Number of laser firing [1, 10]: 3.33 +/− 0.57
Embolisation time ([1]; oral 50 mg/kg, 1 hour): 0 ± 0 min
Number of laser firing ([1]; oral 50 mg/kg, 1 hour): 4 +/− 0
Embolisation time ([1]; oral 50 mg/kg, 6 hours): 1 ± 0 min
Number of emboles ([1]; oral 50 mg/kg, 6 hours): 2.33 +/− 0.57
Number of laser firing ([1]; oral 50 mg/kg, 6 hours): 3.66 +/− 0.57
Embolisation time ([1]; oral 50 mg/kg, 24 hours): 1 ± 0 min
Number of emboles ([1]; oral 50 mg/kg, 24 hours): 2.33 +/− 0.57
Number of laser firing ([1]; oral 50 mg/kg, 24 hours): 2.33 +/− 0.57
Number of emboles ([1]; oral 50 mg/kg, 48 hours): 4.33 +/− 0.57
Duration of embolisation [1, 11]: 1 ± 0 min
Number of emboles or embolies [1, 11]: 2 ± 0
Amplitude (platelet aggregation induced ex vivo) [2, 12]: 11.33 ± 3.08 Ohms
Velocity (platelet aggregation induced ex vivo) [2, 12]: 8.2 ± 0.2 ohm/minute
Amplitude (platelet aggregation induced ex vivo) [2, 13]: 13.2 ± 3.5 Ohms
Velocity (platelet aggregation induced ex vivo) [2, 13]: 9.3 ± 1.8 ohm/minute
Amplitude (platelet aggregation induced ex vivo) [2, 14]: 12.7 ± 4.1 Ohms
Velocity (platelet aggregation induced ex vivo) [2, 14]: 8.7 ± 1.3 ohm/minute
Amplitude (platelet aggregation induced ex vivo) [2, 15]: 13 ± 2.8 Ohms
Velocity (platelet aggregation induced ex vivo) [2, 15]: 8.7 ± 1.15 ohm/minute
Amplitude (platelet aggregation) [2]: 0.66 ± 1.15 ohms
Velocity (platelet aggregation) [2]: 1.66 ± 1.15 ohms/min
ACT [3, 16]: 39.3 ± 2.3 s
Fibrinogen [3, 16]: 2.2 ± 0.1 g/L
Quick time [3, 16]: 19.8 ± 1.2 s
ACT (Activated cephaline time) [3, 17]: 39.9 ± 1.05 s
AT III (Antithrombin III) [3, 17]: 89.5 ± 1.37%
Fibrinogen [3, 17]: 1.7 ± 0.1 g/L
QT (Quick time) [3, 17]: 16.9 ± 1.05 s
α2AP (Alpha,2-antiplasmin) [3, 17]: 29.7 ± 0.68%

Absorbance of azure A at 632 nm [4, 18]: 1.0608
Absorbance of azure A at 632 nm [4, 19]: 0.8399
Absorbance of azure A at 632 nm [4, 20]: 0.5797
Absorbance of azure A at 632 nm [4, 21]: 0.358
Absorbance of azure A at 632 nm [4, 22]: 0.205
Compound: Heparin
Duration of embolisation [1, 11]: 1 ± 0 min
Number of emboles or embolies [1, 11]: 2.67 ± 0.52
Amplitude (platelet aggregation) [2]: 4.33 ± 0.57 ohms
Velocity (platelet aggregation) [2]: 2.66 ± 0.50 ohms/min
ACT (Activated cephaline time) [3, 17]: 39.46 ± 1.36 s
AT III (Antithrombin III) [3, 17]: 77.66 ± 1.52%
Fibrinogen [3, 17]: 2.13 ± 0.25 g/L
QT (Quick time) [3, 17]: 29.50 ± 0.52 s
α2AP (Alpha,2-antiplasmin) [3, 17]: 29.4 ± 1.01%
